# In PMC13266984 (Journal of medicinal chemistry, 2026):
# Columns and labels:
# [1] = molecular target: T1, Human ALDH3A1 (Homo sapiens, UniProt P30838); test: ALDH3A1 biochemical assay (benzaldehyde/NADP+, diaphorase-resazurin readout, 1,536-well)
# T1 sequence (P30838 1-453): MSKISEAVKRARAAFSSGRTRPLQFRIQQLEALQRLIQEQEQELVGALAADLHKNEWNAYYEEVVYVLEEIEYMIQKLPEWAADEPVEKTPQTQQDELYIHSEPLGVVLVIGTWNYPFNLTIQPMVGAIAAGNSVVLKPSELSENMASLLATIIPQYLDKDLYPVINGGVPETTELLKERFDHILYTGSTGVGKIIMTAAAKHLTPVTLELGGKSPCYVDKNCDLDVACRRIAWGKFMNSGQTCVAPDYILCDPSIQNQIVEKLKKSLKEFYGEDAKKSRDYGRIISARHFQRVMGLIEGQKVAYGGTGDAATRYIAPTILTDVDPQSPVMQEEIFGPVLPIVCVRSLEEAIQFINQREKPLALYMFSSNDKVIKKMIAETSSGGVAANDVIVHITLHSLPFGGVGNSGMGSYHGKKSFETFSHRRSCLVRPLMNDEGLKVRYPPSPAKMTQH
# [2] = molecular target: T2, OE19 (3A1) (Homo sapiens, UniProt P30838); test: Cellular ALDEFLUOR assay in OE19 cells (preferential ALDH3A1 expression)
# T2 sequence (P30838 1-453): T1 sequence (P30838 1-453)
# [3] = Table S4, biochemical curve class
# [4] = Table S5, biochemical curve class
SMILES,AC50 [1] [nM],"Efficacy ([1]; Table S4, biochemical)","CC-v2 [1, 3]",AC50 [2] [nM],"Cell_Efficacy ([2]; Table S4, OE19 cells)","Cell_CC-v2 ([2]; Table S4, cellular curve class)","Efficacy ([1]; Table S5, biochemical)","CC-v2 [1, 4]","Cell_Efficacy ([2]; Table S5, OE19 cells)","Cell_CC-v2 ([2]; Table S5, cellular curve class)"
COC(=O)c1ccc(N2CCN(c3nc(C(=O)NCc4cccc(C)c4)cs3)CC2)cc1 [NCGC01211115-01],1290,-72.39,-1.2,990,-81.24,-1.1,–,–,–,–
Cc1cccc(CNC(=O)c2csc(N3CCN(c4ccccc4F)CC3)n2)c1 [NCGC01211127-01],1020,-98.80,-1.1,4950,-89.89,-1.1,–,–,–,–
Cc1cccc(CNC(=O)c2csc(N3CCN(c4cccc([N+](=O)[O-])c4)CC3)n2)c1 [Compound 8],360,-84.72,-1.1,500,-115.29,-2.1,–,–,–,–
Cc1cccc(CNC(=O)c2csc(N3CCN(c4ccc(F)cc4)CC3)n2)c1 [NCGC01219292-01],1150,-94.91,-1.1,880,-90.33,-1.3,–,–,–,–
Cc1cccc(CNC(=O)c2csc(N3CCN(c4cccc([S+](=O)([O-])C(F)(F)F)c4)CC3)n2)c1 [NCGC01210726-01],18200,-54.32,-1.2,15700,-81.37,-1.2,–,–,–,–
Cc1cccc(CNC(=O)c2csc(N3CCN(Cc4cccc(C)c4)CC3)n2)c1 [NCGC01211187-01],910,-93.83,-1.1,4420,-121.01,-2.1,–,–,–,–
O=C(Nc1ccc(CNC(=O)c2csc(N3CCN(c4cccc(C(F)(F)F)c4)CC3)n2)cc1)c1ccncc1 [NCGC01397389-01],–,–,–,7080,–,–,-20.50,4,-125.53,-2.1
COc1c(F)cc(N2CCN(c3nc(C(=O)NCc4cccc(C)c4)cs3)CC2)cc1F [NCGC01211123-01],580,-77.80,-1.2,1760,-94.45,-1.2,–,–,–,–
COc1cc(N2CCN(c3nc(C(=O)NCc4cccc(C)c4)cs3)CC2)cc(OC)c1OC [NCGC01211386-01],3640,-76.22,-1.2,9880,-70.97,-1.2,–,–,–,–
Cc1cccc(CNC(=O)c2csc(N3CCN(c4ccc(C5(C#N)CCCCC5)cc4)CC3)n2)c1 [NCGC01210611-01],730,-77.35,-1.2,620,-33.71,-1.2,–,–,–,–
Cc1cccc(CNC(=O)c2csc(N3CCN(c4cc(C(F)(F)F)nc5ccccc45)CC3)n2)c1 [NCGC01210239-01],810,-79.44,-1.1,9880,-51.72,-2.4,–,–,–,–
N#CSc1ccc(NC(=O)c2csc(N3CCN(c4cccc(C(F)(F)F)c4)CC3)n2)c(F)c1 [NCGC01407980-01],15800,–,–,44.7,–,–,-102.93,-1.1,-75.54,-1.2
COc1ccc(N2CCN(c3nc(C(=O)NCc4cccc(C)c4)cs3)CC2)cc1OC [NCGC01211669-01],6470,-51.05,-1.2,8810,-91.42,-1.1,–,–,–,–
Cc1cccc(CNC(=O)c2csc(N3CCN(c4cccc(OCc5ccccc5C)c4)CC3)n2)c1 [NCGC01211373-01],360,-60.22,-1.2,1110,-85.56,-1.1,–,–,–,–
Cc1cccc(CNC(=O)c2csc(N3CCN(c4ccccc4C)CC3)n2)c1 [NCGC01211138-01],1450,-88.86,-1.1,7850,-88.54,-1.1,–,–,–,–
COc1ccc(Cl)c(N2CCN(c3nc(C(=O)NCc4cccc(C)c4)cs3)CC2)c1 [NCGC01211381-01],580,-89.43,-1.1,31300,-102.69,-2.3,–,–,–,–

# Now from value to compound:
AC50 [1] [nM],"Efficacy ([1]; Table S4, biochemical)","CC-v2 [1, 3]",AC50 [2] [nM],"Cell_Efficacy ([2]; Table S4, OE19 cells)","Cell_CC-v2 ([2]; Table S4, cellular curve class)","Efficacy ([1]; Table S5, biochemical)","CC-v2 [1, 4]","Cell_Efficacy ([2]; Table S5, OE19 cells)","Cell_CC-v2 ([2]; Table S5, cellular curve class)",SMILES
1150,-77.88,-1.2,5560,-101.59,-1.3,–,–,–,–,Cc1cccc(CNC(=O)c2csc(N3CCN(c4cccc(C)c4)CC3)n2)c1 [NCGC01211399-01]
11.2,–,–,860,–,–,-103.16,-1.1,-116.21,-2.1,O=C(NCc1cccc(CC(F)(F)F)c1)c1csc(N2CCN(c3cccc(C(F)(F)F)c3)CC2)n1 [NCGC01407930-01]
15.9,–,–,–,–,–,-100.89,-1.1,0.00,4,COc1cc(CNC(=O)c2csc(N3CCN(c4cccc(C(F)(F)F)c4)CC3)n2)ccc1F [NCGC01396486-01]
25.1,–,–,342,–,–,-100.97,-1.1,-79.11,-1.3,CC(=O)c1cccc(CNC(=O)c2csc(N3CCN(c4cccc(C(F)(F)F)c4)CC3)n2)c1 [NCGC01397289-01]
7.9,–,–,34.2,–,–,-106.26,-1.1,-81.01,-1.1,Cc1cc(CNC(=O)c2csc(N3CCN(c4cccc(C(F)(F)F)c4)CC3)n2)ccc1Cl [Compound 16]
398,–,–,–,–,–,-29.26,-1.4,0.00,5,Cc1cc(CNC(=O)c2csc(N3CCN(c4cccc(C(F)(F)F)c4)CC3)n2)cc(C)c1Br [NCGC01407759-01]
–,–,–,28200,–,–,-23.04,4,-38.73,-2.3,NC(=O)c1csc(N2CCN(c3cccc(C(F)(F)F)c3)CC2)n1 [NCGC01407961-01]
1580,–,–,–,–,–,-41.09,-1.2,-16.71,4,O=C(NC1CC1)c1ccc(CNC(=O)c2csc(N3CCN(c4cccc(C(F)(F)F)c4)CC3)n2)cc1 [NCGC01397384-01]
35.5,–,–,4310,–,–,-100.75,-1.1,-93.55,-1.3,O=C(NCc1ccc(F)c(F)c1)c1csc(N2CCN(c3cccc(C(F)(F)F)c3)CC2)n1 [NCGC01407951-01]
78.2,–,–,8460,–,–,-73.44,-1.2,-106.03,-1.3,O=C(NCc1ccc(-c2ccncc2)nc1)c1csc(N2CCN(c3cccc(C(F)(F)F)c3)CC2)n1 [NCGC01397294-01]
